According to US20030004172A1, “Fused pyrimidinone matrix metalloproteinase inhibitors” (priority 2001, published 2003):
Like-named read-outs stand apart in the source and are kept apart here.

How the values were obtained:
Assay type in all cases: biochemical
[1] = target: MMP-13CD (catalytic domain of collagenase-3) (Homo sapiens, UniProt P45452); assay: Thiopeptolide substrate hydrolysis inhibition assay, MMP-13CD
Excerpt: (§1) Thiopeptolide substrates show virtually no decomposition or hydrolysis at or below neutral pH in the absence of a matrix metalloproteinase enzyme.

[2] = target: T1, MMP-2FL (full length Gelatinase A) (Homo sapiens, UniProt P08253); assay: Thiopeptolide substrate hydrolysis inhibition assay, MMP-2FL; settings: Table II; micromolar concentration; HEPES pH 7.0
T1 sequence (P08253 110-660): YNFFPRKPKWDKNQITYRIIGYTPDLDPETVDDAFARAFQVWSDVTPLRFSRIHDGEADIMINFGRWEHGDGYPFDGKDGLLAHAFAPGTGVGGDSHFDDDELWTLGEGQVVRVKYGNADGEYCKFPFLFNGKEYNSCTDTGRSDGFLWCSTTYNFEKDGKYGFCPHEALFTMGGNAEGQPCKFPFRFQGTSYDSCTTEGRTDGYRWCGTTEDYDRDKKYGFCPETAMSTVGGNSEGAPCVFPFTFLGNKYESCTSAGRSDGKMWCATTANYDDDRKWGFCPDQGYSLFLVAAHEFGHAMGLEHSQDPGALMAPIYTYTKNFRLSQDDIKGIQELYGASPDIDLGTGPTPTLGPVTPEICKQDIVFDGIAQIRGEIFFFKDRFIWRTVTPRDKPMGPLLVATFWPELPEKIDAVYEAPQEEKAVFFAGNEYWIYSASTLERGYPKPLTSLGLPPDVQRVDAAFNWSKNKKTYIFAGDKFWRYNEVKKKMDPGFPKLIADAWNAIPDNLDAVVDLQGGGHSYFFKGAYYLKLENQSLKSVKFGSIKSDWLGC
Excerpt: as §1

[3] = target: T2, MMP-1FL (full-length interstitial collagenase) (Homo sapiens, UniProt P03956); assay: Thiopeptolide substrate hydrolysis inhibition assay, MMP-1FL; settings: Table II; micromolar concentration; HEPES pH 7.0
T2 sequence (P03956 100-469): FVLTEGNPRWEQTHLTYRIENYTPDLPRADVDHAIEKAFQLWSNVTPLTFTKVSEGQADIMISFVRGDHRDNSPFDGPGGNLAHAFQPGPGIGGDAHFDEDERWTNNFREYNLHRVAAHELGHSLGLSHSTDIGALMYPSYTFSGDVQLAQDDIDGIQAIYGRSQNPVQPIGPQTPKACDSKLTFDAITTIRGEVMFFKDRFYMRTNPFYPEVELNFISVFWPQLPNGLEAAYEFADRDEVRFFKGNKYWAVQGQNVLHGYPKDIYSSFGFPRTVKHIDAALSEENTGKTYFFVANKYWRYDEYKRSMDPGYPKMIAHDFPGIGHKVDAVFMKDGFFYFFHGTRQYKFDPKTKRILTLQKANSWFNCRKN
Excerpt: as §1

[4] = target: MMP-3CD (catalytic domain of stromelysin-1) (Homo sapiens, UniProt P08254); assay: Thiopeptolide substrate hydrolysis inhibition assay, MMP-3CD; settings: Table II; micromolar concentration; MES buffer pH 6.0
MMP-3CD (catalytic domain of stromelysin-1), sequence (P08254 100-272 limits assumed): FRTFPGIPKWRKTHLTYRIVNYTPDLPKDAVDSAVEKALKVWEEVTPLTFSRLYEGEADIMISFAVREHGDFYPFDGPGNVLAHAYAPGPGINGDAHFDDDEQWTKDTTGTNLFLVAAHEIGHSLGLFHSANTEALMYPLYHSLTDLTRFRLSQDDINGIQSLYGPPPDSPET
Experimental: as §1
It should be appreciated that the assay buffer used with MMP-3CD is 50 mM N-morpholinoethanesulfonate (“MES”) at pH 6.0 rather than the HEPES buffer at pH 7.0 described above.

[5] = target: MMP-14CD (catalytic domain of MMP-14) (Homo sapiens, UniProt P50281); assay: Thiopeptolide substrate hydrolysis inhibition assay, MMP-14CD; settings: Table II; micromolar concentration; HEPES pH 7.0
Excerpt: as §1

[6] = target: T3, MMP-7FL (full-length matrilysin) (Homo sapiens, UniProt P09237); assay: Thiopeptolide substrate hydrolysis inhibition assay, MMP-7FL; settings: Table II; micromolar concentration; HEPES pH 7.0
T3 sequence (P09237 95-267): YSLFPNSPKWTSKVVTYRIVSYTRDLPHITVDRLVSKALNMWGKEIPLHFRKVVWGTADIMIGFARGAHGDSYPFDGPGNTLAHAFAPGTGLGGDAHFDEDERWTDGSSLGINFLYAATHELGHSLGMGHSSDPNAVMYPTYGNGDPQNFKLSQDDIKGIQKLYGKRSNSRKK
Excerpt: as §1

[7] = target: T4, MMP-12CD (Homo sapiens, UniProt P39900); assay: Thiopeptolide substrate hydrolysis inhibition assay, MMP-12CD; settings: Table II; micromolar concentration; HEPES pH 7.0
T4 construct: 12CD
T4 sequence (P39900 106-263 limits assumed): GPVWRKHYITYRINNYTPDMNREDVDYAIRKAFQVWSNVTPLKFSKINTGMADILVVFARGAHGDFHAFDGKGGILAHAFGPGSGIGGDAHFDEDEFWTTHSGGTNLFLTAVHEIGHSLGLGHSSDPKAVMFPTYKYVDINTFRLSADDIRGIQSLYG
Excerpt: as §1

[8] = target: MMP-9FL (full-length Gelatinase B) (Homo sapiens, UniProt P14780); assay: Thiopeptolide substrate hydrolysis inhibition assay, MMP-9FL; settings: Table II; micromolar concentration; HEPES pH 7.0
MMP-9FL (full-length Gelatinase B), sequence (P14780 94-707, species assumed): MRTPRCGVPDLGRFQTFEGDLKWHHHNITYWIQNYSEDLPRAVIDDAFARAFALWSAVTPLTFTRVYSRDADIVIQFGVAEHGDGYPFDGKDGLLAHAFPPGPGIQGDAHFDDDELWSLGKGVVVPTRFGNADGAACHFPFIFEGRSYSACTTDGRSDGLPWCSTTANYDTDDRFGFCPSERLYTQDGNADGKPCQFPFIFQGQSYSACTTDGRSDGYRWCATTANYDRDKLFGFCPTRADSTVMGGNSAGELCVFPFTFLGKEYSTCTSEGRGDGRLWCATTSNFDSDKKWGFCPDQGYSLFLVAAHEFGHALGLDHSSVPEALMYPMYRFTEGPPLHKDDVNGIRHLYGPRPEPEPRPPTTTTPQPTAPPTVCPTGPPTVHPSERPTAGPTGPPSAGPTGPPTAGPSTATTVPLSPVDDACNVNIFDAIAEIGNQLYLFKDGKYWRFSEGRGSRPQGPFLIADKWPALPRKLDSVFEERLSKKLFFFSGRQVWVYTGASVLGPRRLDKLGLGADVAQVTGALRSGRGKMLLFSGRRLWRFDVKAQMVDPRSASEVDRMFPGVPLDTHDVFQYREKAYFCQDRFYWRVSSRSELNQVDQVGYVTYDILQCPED
Excerpt: as §1

[9] = Table II, micromolar concentration, HEPES pH 7.0, read-out: IC50 MMP-13CD
[10] = Table I, thiopeptolide substrate, HEPES pH 7.0, 22° C., read-out: MMP-13CD IC50

Row | SMILES | IC50 [1, 9] | IC50 [2] | IC50 [3] | IC50 [4] | IC50 [5] | IC50 [6] | IC50 [7] | IC50 [8] | IC50 [1, 10]
1 | COc1cccc(CNC(=O)c2cc3c(=O)n(Cc4ccc(S(=O)(=O)N5CCC(C)CC5)cc4)c(=O)n(C)c3s2)c1 [Example 47, 1-Methyl-3-[4-(4-methyl-piperidine-1-sulfonyl)-benzyl]-2,4-dioxo-1,2,3,4-tetrahydro-thieno[2,3-d]pyrimidine-6-carboxylic acid 3-methoxy-benzylamide] | 0.038 µM | 30 µM | 30 µM | 30 µM | 10 µM | 14 µM | 30 µM | 30 µM | –
2 | COc1ccc(CNC(=O)c2cc3c(=O)n(Cc4cccc(OC)c4)c(=O)n(C)c3s2)cc1 [Example 63, 3-(3-Methoxy-benzyl)-1-methyl-2,4-dioxo-1,2,3,4-tetrahydro-thieno[2,3-d]pyrimidine-6-carboxylic acid 4-methoxy-benzylamide] | 0.11 µM | 30 µM | 30 µM | 18 µM | 30 µM | 30 µM | 30 µM | 30 µM | 0.11 µM
3 | COC(=O)c1ccc(Cn2c(=O)c3cc(C(=O)NCc4ccc(OC)cc4)sc3n(C)c2=O)cc1OC [Example 228, 2-Methoxy-4-[6-(4-methoxy-benzylcarbamoyl)-1-methyl-2,4-dioxo-1,4-dihydro-2H-thieno[2,3-d]pyrimidin-3-ylmethyl]-benzoic acid methyl ester] | 0.435 µM | 30 µM | 30 µM | 15 µM | 30 µM | 10 µM | 30 µM | 30 µM | 0.435 µM
4 | CCCCNC(=O)NS(=O)(=O)c1ccc(Cn2c(=O)c3cc(C(=O)NCc4cccc(OC)c4)sc3n(C)c2=O)cc1 [Example 231a] | 0.009 µM | 50 µM | – | 13 µM | 30 µM | 46 µM | 30 µM | 91 µM | 0.00895 µM
5 | COc1ccc(CNC(=O)c2cc3c(=O)n(CCOc4ccc(Br)cc4)c(=O)n(C)c3s2)cc1 [Example 232, 3-[2-(4-Bromo-phenoxy)-ethyl]-1-methyl-2,4-dioxo-1,2,3,4-tetrahydro-thieno[2,3-d]pyrimidine-6-carboxylic acid 4-methoxy-benzylamide] | 0.18 µM | 30 µM | 30 µM | 17 µM | 30 µM | 30 µM | 30 µM | 30 µM | 0.175 µM
6 | COc1cccc(CNC(=O)c2cc3c(=O)n(CCS(=O)(=O)c4ccc(Cl)cc4)c(=O)n(C)c3s2)c1 [Example 246, 3-[2-(4-Chloro-benzenesulfonyl)-ethyl]-1-methyl-2,4-dioxo-1,2,3,4-tetrahydro-thieno[2,3-d]pyrimidine-6-carboxylic acid 3-methoxy-benzylamide] | 5.65 µM | 30 µM | – | 23 µM | 36 µM | 48 µM | 30 µM | 30 µM | 5.65 µM
7 | COc1ccc(CNC(=O)c2cc3c(=O)n(Cc4ccc([N+](=O)[O-])nc4)c(=O)n(C)c3s2)cc1 [Example 369, 1-Methyl-3-(6-nitro-pyridin-3-ylmethyl)-2,4-dioxo-1,2,3,4-tetrahydro-thieno[2,3-d]pyrimidine-6-carboxylic acid 4-methoxy-benzylamide] | 1.04 µM | 30 µM | 10 µM | 10 µM | 30 µM | 30 µM | 30 µM | 30 µM | 1.04 µM
